Test results from patent US20100209345A1, “Fluorinated Ligands for Targeting Peripheral Benzodiazepine Receptors” (Australian Nuclear Science & Technology Organisation, priority 2006, published 2010).
Where “and” joins values, the source holds several entries; their conditions need not be identical. Identical values can stand only once. Like-named read-outs stand apart in the source and are kept apart here.

Legend:
[1] = LogP HPLC
[2] = biological target: T1, peripheral benzodiazepine binding site (Rattus norvegicus, UniProt P16257); experiment: In vitro binding, [3H]-PK11195, kidney membrane preparation; conditions: [3H]-PK11195 (2 nM), 4° C., 1 h
T1 construct: diluted kidney membrane preparation (200 μg); from tissue; host or cells: kidney membrane preparation
Experimental: Non-specific binding was determined with PK11195 (10 μM).
(§1) Non-specific binding was determined with Flumazenil (20 μM). In both cases, incubations were terminated by rapid filtration through Whatman GF/B glass fibre. Filters were immediately washed 3 times with 5 mL ice-cold 50 mM Tris/HCl at pH 7.4. Filters were counted in a β-scintillation counter (Packard) to measure the amount of bound radioactivity. The IC50 of the compounds for the peripheral benzodiazepine binding site and the central benzodiazepine receptor were calculated using Kell 6 software.

[3] = biological target: central benzodiazepine receptors; experiment: In vitro binding, [3H]-Flumazenil, brain cortex membrane preparation; conditions: [3H]-Flumazenil (2 nM), 25° C., 45 min, read-out: CBR IC50
Experimental: as §1

[4] = Biodistribution of 18F-labelled tracers in rats; type: in vivo; conditions: SD rats; for Biodistribution: Adrenals / Biodistribution: Bladder / Biodistribution: Blood / Biodistribution: Bone / Biodistribution: Brain / Biodistribution: GIT / Biodistribution: Heart / Biodistribution: Kidney / Biodistribution: Liver / Biodistribution: Lungs / Biodistribution: Muscle / Biodistribution: Olfactory bulbs / Biodistribution: Pancreas / Biodistribution: Skin / Biodistribution: Spleen / Biodistribution: Stomach / Biodistribution: Testes / Biodistribution: Thymus / Biodistribution: Thyroid: decay correction not stated
Experimental: [^18F]Fluoride, in the form of H^18F, was produced by the ^18O(p,n)^18F nuclear reaction by bombardment of ^18O-enriched water target. The aqueous [^18F]fluoride solution was added to a 2.5-mL wheaton vial containing dry acetonitrile (1 mL), Kryptofix 2.2.2 (5 mg, 13.3 μmol) and potassium carbonate (2 mg, 14.5 μmol). The solvent was evaporated under a stream of nitrogen at 90° C. with a reducing vacuum. This azeotropic drying was repeated twice by further addition of acetonitrile (2×1 mL). The tosylate precursor 2-(2-(4-(2-tosylethoxy)phenyl)-6-chloroimidazo[1,2-a]pyridin-3-yl)-N,N-diethylacetamide (2 mg, 3.6 μmol) was dissolved in acetonitrile (1 ml) and added to the dried K222.K2CO3.KF complex. Stirring and heating at 90° C. continued for 10 to 15 mins before the reaction mixture was diluted with mobile phase and purified by reverse phase HPLC on an Alltech Alltima, C18, 10μ, 250×22 mm column eluting at 10 mLs/min with 45% acetonitrile, 55% water with 0.1% TFA.
The biodistribution of PBR132* was undertaken in SD rats and analysis up to 4 h p.i. in the brain and peripheral tissues was performed. The specificity and selectivity of the tracer were assessed by pre-treatment with PBR and Central benzodiazepine receptor (CBR) specific ligands (1 mg/kg) 5 min prior to injection of PBR132*.
The biodistribution of PBR 147* was performed in SD rats and brain and peripheral tissues were analysised at 15, 30 min, 1, and 4 h p.i. The specificity and selectivity of the tracer was assessed by pre-treatment of the animals with the PBR ligands PK11195 and Ro 5-4864 and with Flumazenil for CBR at 1 mg/kg 5 min prior to injection of PBR 147*
The biodistribution of PBR102* and PBR111* were performed in SD rats and brain and peripheral tissues analysed at 15, 30 min, 1, and 4 h p.i. The specificity and selectivity of the tracers were assessed by pre-treatment with the PBR ligands PK11195 and Ro 5-4864 and with Flumazenil for CBR at 1 mg/kg 5 min prior to injection of the corresponding tracers.
The specificity and selectivity of the tracers were assessed by pre-treatment with the PBR ligands PK11195 and Ro 5-4864 and with Flumazenil for CBR at 1 mg/kg 5 min prior to injection of the corresponding tracers.

For “2-(6-chloro-2-(4-methoxyphenyl)imidazo[1,2-b]pyridazin-3-yl)-N,N-diethylacetamide [PBR 133]”, the “LogP HPLC” value ([1]; HPLC) was 2.35 ± 0.07, the IC50 ([2]; read-out: PBR IC50) was 32 nM and the IC50 [3] was 18.8 nM.

CCN(CC)C(=O)Cc1c(-c2ccc(C(C)(C)C)cc2)nc2ccc(F)nn12 [Compound 1, reference compound] gave an IC50 ([2]; PBR IC50 (nM)) of 29 nM and an IC50 [3] of 340 nM.

In the case of CCN(CC)C(=O)Cc1c(-c2ccc(OCCF)cc2)nn2c(C)cc(C)nc12 [PBR099, 2-(2-(4-(2-fluoroethoxy)phenyl)-5,7-dimethylpyrazolo[1,5-a]pyrimidin-3-yl)-N,N-diethylacetamide], the chromatographic logP [1] is reported as 2.54 ± 0.08, the “Biodistribution: Adrenals” value ([4]; 15 min) is reported as 5.64 ± 0.53 % ID/g and the “Biodistribution: Bladder” value ([4]; 15 min) is reported as 0.46 ± 0.18 % ID/g. The “Biodistribution: Blood” value ([4]; 15 min) was 0.23 ± 0.03 % ID/g, the “Biodistribution: Bone” value ([4]; 15 min) was 0.64 ± 0.03 % ID/g and the “Biodistribution: Brain” value ([4]; 15 min) was 0.21 ± 0.01 % ID/g. For the same compound, the “Biodistribution: GIT” value ([4]; 15 min) was 0.83 ± 0.09 % ID/g, the “Biodistribution: Heart” value ([4]; 15 min) was 5.86 ± 0.44 % ID/g and the “Biodistribution: Kidney” value ([4]; 15 min) was 3.9 % ID/g and 3.85 ± 0.24 % ID/g. For the same compound, the “Biodistribution: Liver” value ([4]; 15 min) was 0.63 ± 0.06 % ID/g, the “Biodistribution: Lungs” value ([4]; 15 min) was 14.55 ± 1.35 % ID/g and the “Biodistribution: Muscle” value ([4]; 15 min) was 0.65 ± 0.14 % ID/g. The “Biodistribution: Olfactory bulbs” value ([4]; 15 min) was 0.35 % ID/g and 0.35 ± 0.03 % ID/g, the “Biodistribution: Pancreas” value ([4]; 15 min) was 1.70 ± 0.13 % ID/g and the “Biodistribution: Skin” value ([4]; 15 min) was 0.35 ± 0.04 % ID/g. The “Biodistribution: Spleen” value ([4]; 15 min) was 4.60 ± 0.29 % ID/g, the “Biodistribution: Stomach” value ([4]; 15 min) was 0.45 ± 0.18 % ID/g and the “Biodistribution: Testes” value ([4]; 15 min) was 0.184 ± 0.006 % ID/g. The “Biodistribution: Thymus” value ([4]; 15 min) was 0.62 ± 0.17 % ID/g, the “Biodistribution: Thyroid” value ([4]; 15 min) was 6.94 ± 1.04 % ID/g and the “Biodistribution: Adrenals” value ([4]; 30 min) was 6.6 % ID/g and 6.56 ± 1.20 % ID/g. The “Biodistribution: Bladder” value ([4]; 30 min) was 0.42 ± 0.08 % ID/g, the “Biodistribution: Blood” value ([4]; 30 min) was 0.16 ± 0.01 % ID/g and the “Biodistribution: Bone” value ([4]; 30 min) was 0.70 ± 0.02 % ID/g. For the same compound, the “Biodistribution: Brain” value ([4]; 30 min) was 0.14 ± 0.01 % ID/g, the “Biodistribution: GIT” value ([4]; 30 min) was 0.90 ± 0.03 % ID/g and the “Biodistribution: Heart” value ([4]; 30 min) was 5.59 ± 0.26 % ID/g. The “Biodistribution: Kidney” value ([4]; 30 min) was 3.62 ± 0.53 % ID/g, the “Biodistribution: Liver” value ([4]; 30 min) was 0.54 ± 0.18 % ID/g and the “Biodistribution: Lungs” value ([4]; 30 min) was 8.82 ± 0.53 % ID/g. For the same compound, the “Biodistribution: Muscle” value ([4]; 30 min) was 0.55 ± 0.03 % ID/g, the “Biodistribution: Olfactory bulbs” value ([4]; 30 min) was 0.28 ± 0.03 % ID/g and the “Biodistribution: Pancreas” value ([4]; 30 min) was 1.33 ± 0.16 % ID/g. The “Biodistribution: Skin” value ([4]; 30 min) was 0.49 ± 0.02 % ID/g, the “Biodistribution: Spleen” value ([4]; 30 min) was 4.71 ± 0.61 % ID/g and the “Biodistribution: Stomach” value ([4]; 30 min) was 0.32 ± 0.04 % ID/g. The “Biodistribution: Testes” value ([4]; 30 min) was 0.209 ± 0.007 % ID/g, the “Biodistribution: Thymus” value ([4]; 30 min) was 0.66 ± 0.14 % ID/g and the “Biodistribution: Thyroid” value ([4]; 30 min) was 7.99 ± 1.83 % ID/g. The “Biodistribution: Adrenals” value ([4]; 60 min) was 7.82 ± 1.73 % ID/g, the “Biodistribution: Bladder” value ([4]; 60 min) was 0.72 ± 0.17 % ID/g and the “Biodistribution: Blood” value ([4]; 60 min) was 0.14 ± 0.01 % ID/g. The “Biodistribution: Bone” value ([4]; 60 min) was 0.79 ± 0.03 % ID/g, the “Biodistribution: Brain” value ([4]; 60 min) was 0.13 ± 0.02 % ID/g and the “Biodistribution: GIT” value ([4]; 60 min) was 1.31 ± 0.08 % ID/g. For the same compound, the “Biodistribution: Heart” value ([4]; 60 min) was 6.45 ± 0.43 % ID/g, the “Biodistribution: Kidney” value ([4]; 60 min) was 3.53 ± 0.24 % ID/g and the “Biodistribution: Liver” value ([4]; 60 min) was 0.40 ± 0.05 % ID/g. For the same compound, the “Biodistribution: Lungs” value ([4]; 60 min) was 5.66 ± 0.56 % ID/g, the “Biodistribution: Muscle” value ([4]; 60 min) was 0.43 ± 0.02 % ID/g and the “Biodistribution: Olfactory bulbs” value ([4]; 60 min) was 0.29 ± 0.03 % ID/g. The “Biodistribution: Pancreas” value ([4]; 60 min) was 1.08 ± 0.19 % ID/g, the “Biodistribution: Skin” value ([4]; 60 min) was 0.48 ± 0.04 % ID/g and the “Biodistribution: Spleen” value ([4]; 60 min) was 4.51 ± 0.70 % ID/g. For the same compound, the “Biodistribution: Stomach” value ([4]; 60 min) was 0.41 ± 0.09 % ID/g, the “Biodistribution: Testes” value ([4]; 60 min) was 0.266 ± 0.019 % ID/g and the “Biodistribution: Thymus” value ([4]; 60 min) was 0.77 ± 0.12 % ID/g. The “Biodistribution: Thyroid” value ([4]; 60 min) was 9.90 ± 3.67 % ID/g, the “Biodistribution: Bladder” value ([4]; 4 hours) was 0.80 ± 0.11 % ID/g and the “Biodistribution: Blood” value ([4]; 4 hours) was 0.16 ± 0.01 % ID/g. For the same compound, the “Biodistribution: Bone” value ([4]; 4 hours) was 1.0 % ID/g and 1.07 ± 0.05 % ID/g, the “Biodistribution: Brain” value ([4]; 4 hours) was 0.15 ± 0.01 % ID/g and the “Biodistribution: GIT” value ([4]; 4 hours) was 1.90 ± 0.09 % ID/g. For the same compound, the “Biodistribution: Heart” value ([4]; 4 hours) was 4.29 ± 0.86 % ID/g, the “Biodistribution: Kidney” value ([4]; 4 hours) was 2.4 % ID/g and 2.41 ± 0.40 % ID/g and the “Biodistribution: Liver” value ([4]; 4 hours) was 0.29 ± 0.04 % ID/g. The “Biodistribution: Lungs” value ([4]; 4 hours) was 2.80 ± 0.51 % ID/g, the “Biodistribution: Muscle” value ([4]; 4 hours) was 0.30 ± 0.05 % ID/g and the “Biodistribution: Olfactory bulbs” value ([4]; 4 hours) was 0.31 % ID/g and 0.31 ± 0.05 % ID/g. The “Biodistribution: Pancreas” value ([4]; 4 hours) was 0.56 ± 0.09 % ID/g, the “Biodistribution: Skin” value ([4]; 4 hours) was 0.65 ± 0.05 % ID/g and the “Biodistribution: Spleen” value ([4]; 4 hours) was 2.88 ± 0.56 % ID/g. The “Biodistribution: Stomach” value ([4]; 4 hours) was 0.79 ± 0.16 % ID/g, the “Biodistribution: Testes” value ([4]; 4 hours) was 0.349 ± 0.011 % ID/g and the “Biodistribution: Thymus” value ([4]; 4 hours) was 0.91 ± 0.05 % ID/g. The “Biodistribution: Thyroid” value ([4]; 4 hours) was 7.97 ± 1.37 % ID/g, the “Blood activity level / concentration in the blood over the 4 h study period” value ([4]; throughout 15 min to 4 h) was 0.23% and the IC50 [3] was > 5000 nM.

CCCN(CCC)C(=O)Cc1c(-c2ccc(OCCF)cc2)nc2ccc(Cl)cn12 [PBR103, 2-(2-(4-(2-fluoroethoxy)phenyl)-6-chloroimidazo[1,2-a]pyridin-3-yl)-N,N-dipropylacetamide] showed a chromatographic logP [1] of 3.44 ± 0.11, an IC50 ([2]; PBR IC50 (nM)) of 51.3 nM and an IC50 [3] of 1840 nM.

For O=C(Cc1c(-c2ccc(OCCF)cc2)nc2ccc(Cl)cn12)N1CCCC1 [PBR104, 2-(2-(4-(2-fluoroethoxy)phenyl)-6-chloroimidazo[1,2-a]pyridin-3-yl)-1-(pyrrolidin-1-yl)ethanone], the chromatographic logP [1] was 2.45 ± 0.08, the IC50 ([2]; PBR IC50 (nM)) was 575 nM and the IC50 [3] was 1640 nM.

With CN(C)C(=O)Cc1c(-c2ccc(OCCF)cc2)nc2ccc(Cl)cn12 [PBR105, 2-(2-(4-(2-fluoroethoxy)phenyl)-6-chloroimidazo[1,2-a]pyridin-3-yl)-N,N-dimethylacetamide] the chromatographic logP [1] was 2.04 ± 0.06, the IC50 ([2]; PBR IC50 (nM)) was 675 nM and the IC50 [3] was 1760 nM.
